Laboratory results as given in article PMC5224920, “Assessing the mechanism and therapeutic potential of modulators of the human Mediator complex-associated protein kinases” (eLife, 2016).

Tested on: 12 single or co-culture in vitro tissue models of primary cells
Experiment: Culture/co-culture cell model panel, extracellular biomarkers (DiscoveRx); on CCL2/MCP-1: reference of the scale not given here; on CD141/Thrombomodulin: reference of the scale not given here; on CD142/Tissue Factor: reference of the scale not given here; on CXCL8/IL-8: reference of the scale not given here; on CXCL9/MIG: reference of the scale not given here; on M-CSF: reference of the scale not given here; on SRB: reference of the scale not given here
Format: cell-based, human
[1] = /HDFNo unstimulated fibroblasts, 1.00E0 nM
[2] = /HDFNo unstimulated fibroblasts, 1.00E1 nM
[3] = /HDFNo unstimulated fibroblasts, 1.00E2 nM
[4] = /HDFNo unstimulated fibroblasts, 1.00E3 nM
[5] = /HDFNo unstimulated fibroblasts, 1.00E4 nM

Cn1ncc2cc(-c3cnc(N)c(Cl)c3N3CCC4(CCNC4=O)CC3)ccc21 [CMPD 3]
CCL2/MCP-1 (3C, 1.00E0 nM): 0.030
CD54/ICAM-1 (3C, 1.00E0 nM): -0.007
CD87/uPAR (3C, 1.00E0 nM): -0.138
CD106/VCAM-1 (3C, 1.00E0 nM): 0.033
CD141/Thrombomodulin (3C, 1.00E0 nM): 0.044
CD142/Tissue Factor (3C, 1.00E0 nM): 0.040
CXCL8/IL-8 (3C, 1.00E0 nM): 0.00749
CXCL9/MIG (3C, 1.00E0 nM): 0.008
HLA-DR (3C, 1.00E0 nM): -0.007
Proliferation (3C, 1.00E0 nM): -0.065
SRB (3C, 1.00E0 nM): -0.049
CCL2/MCP-1 (3C, 1.00E1 nM): -0.022
CD54/ICAM-1 (3C, 1.00E1 nM): -0.036
CD87/uPAR (3C, 1.00E1 nM): -0.247
CD106/VCAM-1 (3C, 1.00E1 nM): 0.039
CD141/Thrombomodulin (3C, 1.00E1 nM): 0.072
CD142/Tissue Factor (3C, 1.00E1 nM): 0.133
CXCL8/IL-8 (3C, 1.00E1 nM): -0.095
CXCL9/MIG (3C, 1.00E1 nM): -0.00373
HLA-DR (3C, 1.00E1 nM): -0.076
Proliferation (3C, 1.00E1 nM): -0.054
SRB (3C, 1.00E1 nM): -0.076
CCL2/MCP-1 (3C, 1.00E2 nM): -0.124
CD54/ICAM-1 (3C, 1.00E2 nM): -0.048
CD87/uPAR (3C, 1.00E2 nM): -0.349
CD106/VCAM-1 (3C, 1.00E2 nM): 0.034
CD141/Thrombomodulin (3C, 1.00E2 nM): 0.056
CD142/Tissue Factor (3C, 1.00E2 nM): 0.139
CXCL8/IL-8 (3C, 1.00E2 nM): -0.180
CXCL9/MIG (3C, 1.00E2 nM): -0.007
HLA-DR (3C, 1.00E2 nM): -0.144
Proliferation (3C, 1.00E2 nM): -0.088
SRB (3C, 1.00E2 nM): -0.094
CCL2/MCP-1 (3C, 1.00E3 nM): -0.168
CD54/ICAM-1 (3C, 1.00E3 nM): -0.045
CD87/uPAR (3C, 1.00E3 nM): -0.370
CD106/VCAM-1 (3C, 1.00E3 nM): 0.037
CD141/Thrombomodulin (3C, 1.00E3 nM): 0.050
CD142/Tissue Factor (3C, 1.00E3 nM): 0.150
CXCL8/IL-8 (3C, 1.00E3 nM): -0.301
CXCL9/MIG (3C, 1.00E3 nM): -0.026
HLA-DR (3C, 1.00E3 nM): -0.148
Proliferation (3C, 1.00E3 nM): -0.102
SRB (3C, 1.00E3 nM): -0.099
CCL2/MCP-1 (3C, 1.00E4 nM): -0.253
CD54/ICAM-1 (3C, 1.00E4 nM): -0.033
CD87/uPAR (3C, 1.00E4 nM): -0.407
CD106/VCAM-1 (3C, 1.00E4 nM): 0.036
CD141/Thrombomodulin (3C, 1.00E4 nM): 0.036
CD142/Tissue Factor (3C, 1.00E4 nM): 0.224
CXCL8/IL-8 (3C, 1.00E4 nM): -0.302
CXCL9/MIG (3C, 1.00E4 nM): -0.020
HLA-DR (3C, 1.00E4 nM): -0.278
Proliferation (3C, 1.00E4 nM): -0.404
SRB (3C, 1.00E4 nM): -0.222
CCL2/MCP-1 (/HDF3CT, 1.00E0 nM): -0.010
CD54/ICAM-1 (/HDF3CT, 1.00E0 nM): -0.008
CD106/VCAM-1 (/HDF3CT, 1.00E0 nM): 0.026
CXCL8/IL-8 (/HDF3CT, 1.00E0 nM): -0.039
CXCL9/MIG (/HDF3CT, 1.00E0 nM): 0.020
CXCL10/IP-10 (/HDF3CT, 1.00E0 nM): 0.003
Collagen I (/HDF3CT, 1.00E0 nM): 0.036
M-CSF (/HDF3CT, 1.00E0 nM): 0.008
MMP-1 (/HDF3CT, 1.00E0 nM): 0.097
PAI-I (/HDF3CT, 1.00E0 nM): 0.039
SRB (/HDF3CT, 1.00E0 nM): 0.007
TIMP-2 (/HDF3CT, 1.00E0 nM): 0.070
CCL2/MCP-1 (/HDF3CT, 1.00E1 nM): -0.048
CD54/ICAM-1 (/HDF3CT, 1.00E1 nM): -0.062
CD106/VCAM-1 (/HDF3CT, 1.00E1 nM): 0.0026
CXCL8/IL-8 (/HDF3CT, 1.00E1 nM): -0.028
CXCL9/MIG (/HDF3CT, 1.00E1 nM): 0.010
CXCL10/IP-10 (/HDF3CT, 1.00E1 nM): 0.017
Collagen I (/HDF3CT, 1.00E1 nM): 0.021
M-CSF (/HDF3CT, 1.00E1 nM): -0.050
MMP-1 (/HDF3CT, 1.00E1 nM): 0.095
PAI-I (/HDF3CT, 1.00E1 nM): -0.027
SRB (/HDF3CT, 1.00E1 nM): -0.007
TIMP-2 (/HDF3CT, 1.00E1 nM): 0.045
CCL2/MCP-1 (/HDF3CT, 1.00E2 nM): -0.069
CD54/ICAM-1 (/HDF3CT, 1.00E2 nM): -0.067
CD106/VCAM-1 (/HDF3CT, 1.00E2 nM): 0.015
CXCL8/IL-8 (/HDF3CT, 1.00E2 nM): -0.099
CXCL9/MIG (/HDF3CT, 1.00E2 nM): -0.022
CXCL10/IP-10 (/HDF3CT, 1.00E2 nM): 0.012
Collagen I (/HDF3CT, 1.00E2 nM): 0.00367
M-CSF (/HDF3CT, 1.00E2 nM): -0.024
MMP-1 (/HDF3CT, 1.00E2 nM): 0.086
PAI-I (/HDF3CT, 1.00E2 nM): -0.074
SRB (/HDF3CT, 1.00E2 nM): -0.023
TIMP-2 (/HDF3CT, 1.00E2 nM): 0.070
CCL2/MCP-1 (/HDF3CT, 1.00E3 nM): -0.111
CD54/ICAM-1 (/HDF3CT, 1.00E3 nM): -0.061
CD106/VCAM-1 (/HDF3CT, 1.00E3 nM): 0.021
CXCL8/IL-8 (/HDF3CT, 1.00E3 nM): -0.189
CXCL9/MIG (/HDF3CT, 1.00E3 nM): -0.040
CXCL10/IP-10 (/HDF3CT, 1.00E3 nM): 0.00333
Collagen I (/HDF3CT, 1.00E3 nM): 0.027
M-CSF (/HDF3CT, 1.00E3 nM): -0.00149
MMP-1 (/HDF3CT, 1.00E3 nM): 0.040
PAI-I (/HDF3CT, 1.00E3 nM): -0.123
SRB (/HDF3CT, 1.00E3 nM): 0.00334
TIMP-2 (/HDF3CT, 1.00E3 nM): 0.107
CCL2/MCP-1 (/HDF3CT, 1.00E4 nM): -0.053
CD54/ICAM-1 (/HDF3CT, 1.00E4 nM): -0.081
CD106/VCAM-1 (/HDF3CT, 1.00E4 nM): 0.009
CXCL8/IL-8 (/HDF3CT, 1.00E4 nM): -0.144
CXCL9/MIG (/HDF3CT, 1.00E4 nM): -0.049
CXCL10/IP-10 (/HDF3CT, 1.00E4 nM): -0.00029
Collagen I (/HDF3CT, 1.00E4 nM): 0.010
M-CSF (/HDF3CT, 1.00E4 nM): -0.092
MMP-1 (/HDF3CT, 1.00E4 nM): 0.107
PAI-I (/HDF3CT, 1.00E4 nM): -0.208
SRB (/HDF3CT, 1.00E4 nM): -0.230
TIMP-2 (/HDF3CT, 1.00E4 nM): 0.271
CXCL8/IL-8 [1]: 0.059
CXCL9/MIG [1]: 0.119
CXCL10/IP-10 [1]: 0.034
CXCL11/I-TAC [1]: 0.074
EGFR [1]: 0.022
M-CSF [1]: 0.066
MMP-1 [1]: 0.081
PAI-I [1]: 0.044
Proliferation_72hr [1]: -0.013
SRB [1]: 0.039
TIMP-1 [1]: 0.047
TIMP-2 [1]: 0.100
CXCL8/IL-8 [2]: 0.037
CXCL9/MIG [2]: 0.058
CXCL10/IP-10 [2]: 0.054
CXCL11/I-TAC [2]: -0.002
EGFR [2]: 0.009
M-CSF [2]: 0.048
MMP-1 [2]: 0.040
PAI-I [2]: -0.042
Proliferation_72hr [2]: 0.000939
SRB [2]: 0.011
TIMP-1 [2]: 0.040
TIMP-2 [2]: 0.045
CXCL8/IL-8 [3]: 0.041
CXCL9/MIG [3]: 0.091
CXCL10/IP-10 [3]: 0.056
CXCL11/I-TAC [3]: -0.021
EGFR [3]: 0.019
M-CSF [3]: 0.020
MMP-1 [3]: 0.030
PAI-I [3]: -0.011
Proliferation_72hr [3]: 0.020
SRB [3]: -0.014
TIMP-1 [3]: -0.015
TIMP-2 [3]: 0.091
CXCL8/IL-8 [4]: 0.013
CXCL9/MIG [4]: 0.053
CXCL10/IP-10 [4]: 0.0016
CXCL11/I-TAC [4]: -0.010
EGFR [4]: 0.012
M-CSF [4]: -0.000464
MMP-1 [4]: 0.050
PAI-I [4]: -0.034
Proliferation_72hr [4]: 0.048
SRB [4]: -0.021
TIMP-1 [4]: 0.010
TIMP-2 [4]: 0.080
CXCL8/IL-8 [5]: 0.011
CXCL9/MIG [5]: -0.074
CXCL10/IP-10 [5]: -0.076
CXCL11/I-TAC [5]: 0.023
EGFR [5]: 0.045
M-CSF [5]: 0.010
MMP-1 [5]: 0.054
PAI-I [5]: -0.028
Proliferation_72hr [5]: 0.002
SRB [5]: -0.00187
TIMP-1 [5]: -0.007
TIMP-2 [5]: 0.202
CCL2/MCP-1 (/HDFNo, 1.00E0 nM): 0.028
CD54/ICAM-1 (/HDFNo, 1.00E0 nM): 0.066
CD106/VCAM-1 (/HDFNo, 1.00E0 nM): 0.114
Collagen I (/HDFNo, 1.00E0 nM): 0.082
Collagen III (/HDFNo, 1.00E0 nM): 0.065
CCL2/MCP-1 (/HDFNo, 1.00E1 nM): 0.027
CD54/ICAM-1 (/HDFNo, 1.00E1 nM): 0.074
CD106/VCAM-1 (/HDFNo, 1.00E1 nM): 0.048
Collagen I (/HDFNo, 1.00E1 nM): 0.041
Collagen III (/HDFNo, 1.00E1 nM): 0.032
CCL2/MCP-1 (/HDFNo, 1.00E2 nM): 0.042
CD54/ICAM-1 (/HDFNo, 1.00E2 nM): -0.013
CD106/VCAM-1 (/HDFNo, 1.00E2 nM): 0.065
Collagen I (/HDFNo, 1.00E2 nM): 0.061
Collagen III (/HDFNo, 1.00E2 nM): 0.079
CCL2/MCP-1 (/HDFNo, 1.00E3 nM): 0.025
CD54/ICAM-1 (/HDFNo, 1.00E3 nM): 0.014
CD106/VCAM-1 (/HDFNo, 1.00E3 nM): 0.026
Collagen I (/HDFNo, 1.00E3 nM): 0.099
Collagen III (/HDFNo, 1.00E3 nM): 0.101
